# Test results: patent US20110201664A1, “Methods and Compositions for Treatment of Prostate Intraepithelial Neoplasia” (priority 2006, published 2011)
# System: High Grade PIN
# Test: Treatment of a patient with High Grade PIN, repeat prostate biopsy
# Assay type: in vivo, human
# Details: person with High Grade PIN; 225 mg per day once daily, 30 doses; 12 biopsies two weeks after last dose; on Atorvastatin 20 mg daily
# Experimental: A person was diagnosed as having High Grade PIN. The diagnosis was based upon 12 biopsies which were done in conjunction with ultrasound localization of the biopsy site, with careful recording of there anatomical position. The patient was started on Bexarotene 225 mg per day. The drug was given as a single dose once daily. […] During the period of therapy the patient was on Atorvastatin 20 mg daily. During the therapy, total cholesterol was 183 mg with a reference range <200 mg/dL, triglycerides were 207 with normal being less than 150 mg/dL, thyroid stimulation hormone (TSH) was 0.07 with the reference range 0.4-5.5 mIU/L, T4 total was 7.4 with the normal range 4.5-12.0 mcg/dL. The Hepatic Function Panel was normal as was the complete blood count (CBC). Two weeks following the last dose of Bexarotene the prostate was rebiopsied with 12 biopsies taken. Six of the biopsies were taken from the putative area, the rest in an enlarging target like pattern. The repeat biopsy was negative for the presence of PIN.
structure (smiles),measurement,value
"C=C(c1ccc(C(=O)O)cc1)c1cc2c(cc1C)C(C)(C)CCC2(C)C [Bexarotene, 4-[1-(5,6,7,8-tetrahydro-3,5,5,8,8-pentamethyl-2-naphthalenyl)ethenyl] benzoic acid]","Repeat biopsy, presence of PIN",negative
